Reference: PubChem BioAssay (NCI)
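Where inhibition never reached the appropriate level, the endpoint shown equals the highest concentration tested. Otherwise, values were interpolated linearly from a five-concentration, 48-hour dose response in 96-well plates. Definition used: TGI = concentration required for complete inhibition of growth.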

Experiments:
Experiment in all cases: DTP human tumour cell line panel, 48 h
ACHN renal = test system: ACHN renal
SK-OV-3 ovarian = test system: SK-OV-3 ovarian
SK-MEL-5 melanoma = test system: SK-MEL-5 melanoma
OVCAR-8 ovarian = test system: OVCAR-8 ovarian
NCI-H23 lung = test system: NCI-H23 lung
A549 NSCLC = test system: A549 NSCLC
BT-549 breast = test system: BT-549 breast
HL-60(TB) leukemia = test system: HL-60(TB) leukemia
MDA-MB-435 = test system: MDA-MB-435
PC-3 prostate = test system: PC-3 prostate
SF-268 CNS = test system: SF-268 CNS
MALME-3M melanoma = test system: MALME-3M melanoma
SN12C renal = test system: SN12C renal
CCRF-CEM leukemia = test system: CCRF-CEM leukemia
M14 melanoma = test system: M14 melanoma
OVCAR-3 ovarian = test system: OVCAR-3 ovarian
SF-539 CNS = test system: SF-539 CNS
DU-145 prostate = test system: DU-145 prostate
T-47D breast = test system: T-47D breast
NCI-H460 lung = test system: NCI-H460 lung
MDA-MB-231 breast = test system: MDA-MB-231 breast
K-562 leukemia = test system: K-562 leukemia
HOP-92 NSCLC = test system: HOP-92 NSCLC
U251 CNS = test system: U251 CNS
KM12 colon = test system: KM12 colon
UACC-62 melanoma = test system: UACC-62 melanoma
OVCAR-4 ovarian = test system: OVCAR-4 ovarian
SW-620 colon = test system: SW-620 colon
HCC-2998 colon = test system: HCC-2998 colon
SNB-75 CNS = test system: SNB-75 CNS
HOP-62 NSCLC = test system: HOP-62 NSCLC
OVCAR-5 ovarian = test system: OVCAR-5 ovarian
COLO 205 colon = test system: COLO 205 colon
HT29 colon = test system: HT29 colon
EKVX NSCLC = test system: EKVX NSCLC
CAKI-1 renal = test system: CAKI-1 renal
NCI-H522 lung = test system: NCI-H522 lung
IGROV1 ovarian = test system: IGROV1 ovarian
MDA-N = test system: MDA-N
SNB-19 CNS = test system: SNB-19 CNS
MOLT-4 leukemia = test system: MOLT-4 leukemia
HS 578T breast = test system: HS 578T breast
NCI-H226 lung = test system: NCI-H226 lung
SK-MEL-28 melanoma = test system: SK-MEL-28 melanoma
HCT-116 colon = test system: HCT-116 colon
UACC-257 melanoma = test system: UACC-257 melanoma
TK-10 renal = test system: TK-10 renal
SR leukemia = test system: SR leukemia
786-0 renal = test system: 786-0 renal
SF-295 CNS = test system: SF-295 CNS
UO-31 renal = test system: UO-31 renal
A498 renal = test system: A498 renal
MCF7 breast = test system: MCF7 breast
SK-MEL-2 melanoma = test system: SK-MEL-2 melanoma
NCI/ADR-RES ovarian = test system: NCI/ADR-RES ovarian
HCT-15 colon = test system: HCT-15 colon
LOX IMVI melanoma = test system: LOX IMVI melanoma
RXF 393 renal = test system: RXF 393 renal

`CC1C2CC(CC2N)C1(C)C` (stereo not given) was tested, and the TGI (ACHN renal) was > 100 µM, the TGI (SK-OV-3 ovarian) was > 100 µM and the TGI (SK-MEL-5 melanoma) was > 100 µM. For the same compound, the TGI (OVCAR-8 ovarian) was > 100 µM, the TGI (NCI-H23 lung) was > 100 µM and the TGI (A549 NSCLC) was > 100 µM. The TGI (BT-549 breast) was > 100 µM, the TGI (HL-60(TB) leukemia) was > 100 µM and the TGI (MDA-MB-435) was > 100 µM. For the same compound, the TGI (PC-3 prostate) was > 100 µM, the TGI (SF-268 CNS) was > 100 µM and the TGI (MALME-3M melanoma) was > 100 µM. For the same compound, the TGI (SN12C renal) was > 100 µM, the TGI (CCRF-CEM leukemia) was > 100 µM and the TGI (M14 melanoma) was > 100 µM. For the same compound, the TGI (OVCAR-3 ovarian) was > 100 µM, the TGI (SF-539 CNS) was > 100 µM and the TGI (DU-145 prostate) was > 100 µM. The TGI (T-47D breast) was > 100 µM, the TGI (NCI-H460 lung) was > 100 µM and the TGI (MDA-MB-231 breast) was > 100 µM. The TGI (K-562 leukemia) was > 100 µM, the TGI (HOP-92 NSCLC) was > 100 µM and the TGI (U251 CNS) was > 100 µM. The TGI (KM12 colon) was > 100 µM, the TGI (UACC-62 melanoma) was > 100 µM and the TGI (OVCAR-4 ovarian) was > 100 µM. The TGI (SW-620 colon) was > 100 µM, the TGI (HCC-2998 colon) was > 100 µM and the TGI (SNB-75 CNS) was > 100 µM. The TGI (HOP-62 NSCLC) was > 100 µM, the TGI (OVCAR-5 ovarian) was > 100 µM and the TGI (COLO 205 colon) was > 100 µM. For the same compound, the TGI (HT29 colon) was > 100 µM, the TGI (EKVX NSCLC) was > 100 µM and the TGI (CAKI-1 renal) was > 100 µM. For the same compound, the TGI (NCI-H522 lung) was > 100 µM, the TGI (IGROV1 ovarian) was > 100 µM and the TGI (MDA-N) was > 100 µM. The TGI (SNB-19 CNS) was > 100 µM, the TGI (MOLT-4 leukemia) was > 100 µM and the TGI (HS 578T breast) was > 100 µM. For the same compound, the TGI (NCI-H226 lung) was > 100 µM, the TGI (SK-MEL-28 melanoma) was > 100 µM and the TGI (HCT-116 colon) was > 100 µM. For the same compound, the TGI (UACC-257 melanoma) was > 100 µM, the TGI (TK-10 renal) was > 100 µM and the TGI (SR leukemia) was > 100 µM. The TGI (786-0 renal) was > 100 µM, the TGI (SF-295 CNS) was > 100 µM and the TGI (UO-31 renal) was > 100 µM. The TGI (A498 renal) was > 100 µM and the TGI (MCF7 breast) was > 100 µM.

With `COc1cc(O)c2c(=O)c(OC)c(-c3ccc4c(c3)OCO4)oc2c1OC` the TGI (SK-MEL-2 melanoma) was > 50 µM, the TGI (ACHN renal) was > 50 µM and the TGI (NCI/ADR-RES ovarian) was > 50 µM. The TGI (SK-OV-3 ovarian) was > 50 µM, the TGI (SK-MEL-5 melanoma) was > 50 µM and the TGI (OVCAR-8 ovarian) was > 50 µM. For the same compound, the TGI (NCI-H23 lung) was > 50 µM, the TGI (A549 NSCLC) was > 50 µM and the TGI (BT-549 breast) was > 50 µM. The TGI (HL-60(TB) leukemia) was > 50 µM, the TGI (HCT-15 colon) was > 50 µM and the TGI (MDA-MB-435) was > 50 µM. The TGI (PC-3 prostate) was > 50 µM, the TGI (SF-268 CNS) was > 50 µM and the TGI (MALME-3M melanoma) was > 50 µM. The TGI (SN12C renal) was > 50 µM, the TGI (CCRF-CEM leukemia) was > 50 µM and the TGI (M14 melanoma) was > 50 µM. For the same compound, the TGI (OVCAR-3 ovarian) was > 50 µM, the TGI (SF-539 CNS) was > 50 µM and the TGI (DU-145 prostate) was > 50 µM. For the same compound, the TGI (T-47D breast) was > 50 µM, the TGI (NCI-H460 lung) was > 50 µM and the TGI (MDA-MB-231 breast) was > 50 µM. For the same compound, the TGI (K-562 leukemia) was > 50 µM, the TGI (HOP-92 NSCLC) was 44.2 µM and the TGI (U251 CNS) was > 50 µM. The TGI (KM12 colon) was > 50 µM, the TGI (UACC-62 melanoma) was > 50 µM and the TGI (OVCAR-4 ovarian) was > 50 µM. The TGI (SW-620 colon) was > 50 µM, the TGI (HCC-2998 colon) was > 50 µM and the TGI (SNB-75 CNS) was 31.9 µM. The TGI (HOP-62 NSCLC) was > 50 µM, the TGI (OVCAR-5 ovarian) was > 50 µM and the TGI (COLO 205 colon) was > 50 µM. The TGI (LOX IMVI melanoma) was > 50 µM, the TGI (RXF 393 renal) was > 50 µM and the TGI (HT29 colon) was > 50 µM. For the same compound, the TGI (EKVX NSCLC) was > 50 µM, the TGI (CAKI-1 renal) was > 50 µM and the TGI (NCI-H522 lung) was > 50 µM. For the same compound, the TGI (IGROV1 ovarian) was > 50 µM, the TGI (MDA-N) was > 50 µM and the TGI (SNB-19 CNS) was > 50 µM. The TGI (MOLT-4 leukemia) was > 50 µM, the TGI (HS 578T breast) was > 50 µM and the TGI (NCI-H226 lung) was > 50 µM. The TGI (SK-MEL-28 melanoma) was > 50 µM, the TGI (HCT-116 colon) was > 50 µM and the TGI (UACC-257 melanoma) was > 50 µM. For the same compound, the TGI (TK-10 renal) was > 50 µM, the TGI (786-0 renal) was > 50 µM and the TGI (SF-295 CNS) was > 50 µM. For the same compound, the TGI (UO-31 renal) was > 50 µM, the TGI (A498 renal) was > 50 µM and the TGI (MCF7 breast) was > 50 µM.
